Measured values: patent US20170168056A1, “METHODS AND COMPOSITIONS FOR DETECTING AND MODULATING CANCER CELLS” (Massachusetts Institute of Technology, priority 2015, published 2017)

Assays:
MDA-MB-231 cells = assay: In vitro imaging of cell velocity on collagen; format: cell-based, human; settings: 231-Control, 231-MENA, 231-MENA^INV; paclitaxel 1, 10 or 100 nM
Procedure: In vitro imaging. Glass bottom dishes were coated with Co11agen at 0.1 mg/mL diluted in PBS for 1 hour at 37° C. Cells expressing different MENA isoform were treated with paclitaxel at 1, 10 or 100 nM or vehicle and immediately plated on the glass bottom dishes. 30 minutes later, cells were imaged overnight, with one image acquired every 10 minutes for 16 hours on a Nikon spinning disk with a 20× objective and an Andor/NeoZyla camera. Individual cells were manually tracked using ImageJ and Manual Tracking plug-in. Data were analyzed using the chemotaxis tool developed by IBIDI. For analysis of time spent in cell division, the time between when the mother cell first rounds up, to when both daughter cells have spread out on substrate was measured. The percentage of successful cell divisions was quantified by counting the number of cell divisions that lead to two surviving daughter cells. Data are pooled from at least 50 cells tracked in three independent experiments.
(§1) MENA and MENA^INV drive increased cell motility and metastasis during tumor progression. Therefore, whether MENA isoform expression impacts cell migration and dissemination after paclitaxel treatment was examined.

[1] = test system: MDA-MB-231 xenograft tumors; assay: Multiphoton intravital imaging of motile tumor cells; format: in vivo, mouse
Procedure: Intravital imaging. Intravital multiphoton imaging was performed as described previously (Oudin M J, et al. Tumor cell-driven extracellular matrix remodeling enables haptotaxis during metastatic progression. Cancer Discov. 2016; Available from: www.ncbi.nlm.nih.gov/pubmed/26811325) using a 25×1.05 NA water immersion objective with correction lens. After exposing the tumor with a skin flap surgery, 30 minute movies were captured. The number of motile cells in each field of view were count in ten 30 minute time-lapse movies using ImageJ. Motile cells were cells who show any displacement of the nucleus and cell protrusion activity. Data were pooled from 2-4 mice per tumor group, with 4-10 fields imaged per mouse.
as §1

Mena = Mena expression in cultured cells after taxane treatment (Western blot, FACS of GFP); format: cell-based, human
Procedure: Taxol treatment induces increased Mena protein expression in vitro and in vivo. As high level of Mena or Mena^INV expression correlated with low response to Taxo, we hypothesized that Taxol treatment might affect Mena expression. […]. After 72 h of treatment with the drug, the expression level of Mena was 70% higher than in vehicle-treated cells.
Western blot. Cells were lysed in 25 mM Tris, 150 mM NaCl, 10% glycerol, 1% NP 40 and […] EDTA with a protease Mini-complete protease inhibitors (Roche) and a phosphatase inhibitor cocktail (PhosSTOP, Roche) at 4° C. for 20 minutes. Protein lysates were separated by SDS-PAGE, transferred to a nitrocellulose membrane and blocked with Odyssey Blocking Buffer (LiCor). Membranes were incubated with primary antibody overnight at 4° C. and Licor secondary antibodies at room temperature for 1 hour. Protein level intensity was measured with Image J.
Paclitaxel treatment selects for high MENA expression in vitro and in vivo. The Examples so far indicate that increased MENA or MENA^INV expression levels are associated with reduced responses to paclitaxel. The effect of paclitaxel treatment on levels of MENA expression in cell populations in vitro and in vivo was examined. First, endogenous MENA expression by Western Blot in 5 breast cancer cell lines that were exposed to 100 nM of paclitaxel or a vehicle control were analyzed (FIG. 33A).

T47D cells = assay: Cell viability of T47D cells expressing ShCtrl or ShMENA after paclitaxel; format: cell-based, human; settings: T47D ShMENA vs ShCtrl, 72 hours
Procedure: Cell Culture. MDA-MB-231 cells were purchased directly from the ATCC in June 2012, where cell lines are authenticated by short tandem repeat profiling. These cells were not reauthenticated by our lab and were cultured in DMEM with 10% FBS (Hyclone). Cell line generation and FACS were performed as previously described (32). […] SUM159 cells were obtained from Joan Brugge's lab at Harvard Medical School (January 2011) and were not reauthenticated in our lab. SUM159 cells were cultured according to the ATCC protocols. T47D cells were purchased at ATCC, where cell lines are authenticated by short tandem repeat profiling. They were cultured according to the manufacturer's protocol, and not reauthenticated in our lab. […]
MENA and MENA^INV are associated with increased survival during paclitaxel treatment in vitro. […] MENA and MENA^INV were determined to be widely expressed in all main breast cancer subtypes, as measured by mRNA from TCGA samples, as well as at the protein level by immunohistochemistry (FIGS. 28A, 28B, 28C), with slightly higher expression in patients with Her2+ breast cancer. […] Under the conditions we used, MENA11a co-migrates with the 80 kDa MENA, thus the intensity of the measured the 80 kDa MENA, detected with an antibody known to recognize all MENA isoforms, represents the total amount of 80 kDa MENA plus MENA11a in the cell lines that express both isoforms. […]

CC(=O)O[C@H]1C(=O)[C@@]2(C)[C@H]([C@H](OC(=O)c3ccccc3)[C@]3(O)C[C@H](OC(=O)[C@H](O)[C@@H](NC(=O)c4ccccc4)c4ccccc4)C(C)=C1C3(C)C)[C@]1(OC(C)=O)CO[C@@H]1C[C@@H]2O [paclitaxel]
cell velocity in vitro (MDA-MB-231 cells): decreased velocity
number of cells moving within tumors ([1]; 231-Control tumors): significantly reduced
motility of tumor cells in vivo ([1]; 231-MENA and 231-MENA^INV tumors): not affected
endogenous MENA expression by Western Blot (Mena; 5 breast cancer cell lines, 100 nM paclitaxel, 72 hours, vs vehicle): some cell lines (MDA-MB-231 and MDA-MB-175VII) showed increased MENA expression
FACS analysis of GFP expression levels after taxane treatment (Mena; MDA-MB-231 populations expressing GFP, GFP-MENA or GFP-MENA^INV): selected for high-Mena^INV-GFP expressing cells
expression level of Mena higher than in vehicle-treated cells (Mena; after 72 h of treatment): 70%
sensitivity to paclitaxel after reducing all MENA isoform levels (T47D cells): more sensitive to paclitaxel
